Results reported in patent US20220193021A1 (priority 2019, published 2022).
Structures can show the parent of a compound that is named as a salt.

Experiments:
Format in all cases: cell-based
[1] = tested on: influenza virus protein hemagglutinin 0 (HA0)
[2] = tested on: serine proteases (TMPRSS4, TMPRSS11D, TMPRSS2, and DESC1); experiment: mRNA levels of serine proteases in human lung airway chips; conditions: 10 μM versus vehicle
[3] = tested on: serine proteases (TMPRSS4, TMPRSS11D, TMPRSS2, and DESC1); experiment: Protein levels of serine proteases in human lung airway chips; conditions: 10 μM versus vehicle
Text: Protein levels of chips treated with nafamostat mesylate are relative to chips not treated with nafamostat mesylate.

[4] = tested on: influenza virus

Compound | effect on the cleavage of HA0 [1] | effect on mRNA expression of serine proteases [2] | effect on protein expression of serine proteases [3] | therapeutic window [4]
N=C(N)c1ccc2cc(OC(=O)c3ccc(N=C(N)N)cc3)ccc2c1 [nafamostat mesylate] | efficiently block | no effect | no effect | 
CCOC(=O)C1=C[C@@H](OC(CC)CC)[C@H](NC(C)=O)[C@@H](N)C1 [oseltamivir] |  |  |  | approximately 48 hours
